Results on 39 compounds are retold here after patent publication US10392363B2, “Methods for treating protozoan infections” (Neoculi Pty Ltd., priority 2014, dated 2019).

Some results are limits rather than exact numbers.

Data set [1] has as its system Trypanosoma cruzi (Tulahuen trypomastigotes expressing β-galactosidase, in L6 cells). Kind of data set: In vitro T. cruzi assay for determination of IC50. The data set is classed as cell-based. The settings on record: 96 h incubation. As for the experimental part: The T. cruzi assay uses Tulahuen trypomastigotes expressing the β-galactosidase gene. The parasites were maintained in vitro by serial passage in L6 cells. […] Extracellular trypomastigotes were then removed and NCL compounds were added in seven-point serial dilutions performed in triplicate. Benznidazole (Epichem Pty Ltd.) was included as a control. […] After 4-6 h, a colour change following catabolisation of the reagent by viable T. cruzi was observed and absorbance was read at 530 nm using a Dynex microplate reader. […] For each compound, % inhibition values were used to generate a standard curve from which the IC50 was calculated. Each assay was performed at least twice, and the average was used.

Data set [2] has as its system Leishmania donovani promastigotes. Kind of data set: L. donovani screening (Alamarblue). Particulars: for inhibition at 10 µM: 96 hrs, read-out: reduction of metabolic activity / inhibition of L. donovani; for L. donovani SI: GI50 of macrophages divided by IC50 of parasites. The data set is classed as cell-based. As for the experimental part: L. donovani Screening. Procyclic promastigotes from exponentially growing cultures maintained in DME-L+ Bob additions were used for all assays. Compounds were initially screened for activity at 10 μM. Compounds were diluted in culture media to a […] in 96 well plates. Promastigotes were diluted to a density of ˜8×10^5 cells/ml then added to the assay plate resulting in a final cell density of 4×10^5 cells/ml. in 96 well plates. Cells were incubated for 96 hrs at 27° C. before the addition of Alamarblue (thermofisher). Fluorescence was read at excitation 530 nm and Emission 590 nm. […] Compounds were serially diluted in thirds, in a 96 well plate, in cell growth media so that concentrations ranged from 0.005 to 10 μM and promastigotes added to a final concentration of 1×10^6 cells/ml. Cells were incubated at 27° C. for 72 hours before the addition of alamar blue. Fluorescence was measured as above.

Data set [3] relates to T. brucei procyclic stage. Kind of data set: T. brucei screening (alamar blue). The data set is classed as cell-based, Trypanosoma brucei. The procedure:
T. brucei screening. Procyclic promastigotes from exponentially growing cells maintained SDM-79 medium were used in all assays. Compounds were initially screened at 10 μM for activity. Compounds were diluted in culture media to a concentration of 20 μM and added to a 96 well plate, after addition of promastigotes (final concentration 4×10^5 cells/ml) compound concentration was 10 μM. Cells were incubated for 48 hrs at 27° C. before the addition of alamar blue and fluorescence measurement as described above. […] Compounds were serially diluted in thirds in culture media resulting in final concentrations ranging from 0.004-10 μM. Promastigotes were added at a final concentration of 4×10^5 cells/ml. Cells were incubated at 27° C. for 48 hours before addition of alamar blue. In addition promastigotes, at a concentration of 8×10^5 were exposed to NCL026 for 1.5 hours before removal of the drug via centrifugation at 5000 rpm for 7 minutes and resuspension of cells in culture media. Cells were incubated for 96 hours at 27° C. and observed daily for metabolic activity (alamar blue assay) and morphological changes. A control culture was exposed to DMSO instead of NCL026.
In general terms: Alamar Blue is a resazurin reagent that responds to reducing activity.

The nature of data set [4]: Cell toxicity assay (WST-1). The data set is classed as cell-based, mouse. The settings on record: mouse, RAW 264.7 macrophages, RAW 264.7, 24 hours, read-out: GI50 macrophage. The procedure:
Cell toxicity assays. Mouse macrophages (RAW 264.7) were grown in RPM11640 media supplemented with L-glutamine and 10% foetal calf serum. Cells were trypsanised when 80% confluent and subcultured every 3-4 days. For cytotoxicity assays cells were diluted to a final cell concentration of 2×10^4 cells/ml and 198 μl added to each well of a 96 well plate. Cells were incubated in a humidified incubator for 2 hours at 37° C. 5% CO2 before the addition of NCL compounds (2 μl/well, previously diluted in DMSO). Campothecin, triton X and DMSO only were used as controls. Cells were exposed to the compounds for 24 hours. The metabolic activity of the cells was determined using the WST-1 assay system (Roche Life Science). The supernatant was removed, 100 μl of PBS with 10% WST-1 was added to each well and incubated for 1 hr before reading absorbance at 450 nm. The selectivity index of the compounds was determined by dividing the IC50 of macrophages by the IC50 against parasites. IC50 was determined via graphpad prism software.

For data set [5], the system named is Giardia duodenalis trophozoites. Kind of data set: Resazurin reduction assay (Example 3). Particulars: 42 hours, then 6 hours with Alamarblue. The data set is classed as cell-based. As for the experimental part: Giardia trophozoites were grown until confluent. The media was replaced with fresh media and they were cold shocked for 40 minutes (as above). Cells were diluted to a concentration of ˜500 000 cells/ml and 100 μl were added to each well of the assay plate (except media only control). The assay was incubated in an anaerobic environment (candle jar) for 42 hours at 37° C. […] After incubation the absorbance of each sample was read at 570 and 630 nm. The percent reduction of resazurin (Alamarblue™) was calculated and data was analysed with GraphPad Prism v6 software. Assay set-up: the assay was performed in 96 well plates in a total volume of 200 μl. 100 μl of NCL812 or NCL062 (concentration of 25.6 mg/ml in DMSO) or metronidazole (concentration 5 mg/ml in DMSO) stock was added to 9.9 ml of TYI-S-33 medium, then serially diluted 1:2 in the same medium. Cells were added as above.

Where [6] appears, read: Trypanosoma cruzi, TULAHUEN, L6.

In data set [1] (setting [6]), `O=C(N/N=C/c1cccc(C(F)(F)F)c1)N/N=C/c1cccc(C(F)(F)F)c1` [NCL011] yielded a concentration for half-maximal inhibition (IC50) greater than 11 µM.
Consider `N=C(NN=Cc1ccccc1Cl)NN=Cc1ccccc1Cl` [NCL020], for which the half-maximal inhibitory concentration (IC50) in data set [1] is 24 µM.
`N=C(N/N=C/c1ccc(F)cc1)N/N=C/c1ccc(F)cc1` [NCL021] showed a 50% inhibitory concentration (IC50) in data set [1] (setting [6]) of 16 µM.
The same measure, in the same setting: to `N=C(N/N=C/c1cccc(F)c1)N/N=C/c1cccc(F)c1` [NCL023] belongs 19 µM.
`N#Cc1ccccc1C=NNC(=N)NN=Cc1ccccc1C#N` [NCL025] came in with an IC50 in data set [1] of 20 µM.
Same read-out and setting: to `COc1ccc(C=NNC(=N)NN=Cc2ccc(OC)cc2)cc1` [NCL027] belongs 14 µM.
As for `COc1cccc(/C=N/NC(=N)N/N=C/c2cccc(OC)c2)c1` [NCL029], the IC50 in data set [1] (setting [6]) was determined as 19 µM.
Still for that read-out and setting: to `N=C(N)N/N=C/c1ccc(Cl)cc1` [NCL030] belongs 18 µM.
Turning to `N#Cc1ccccc1C=NNC(=N)N` [NCL032], in data set [1], the IC50 turned out to be 58 µM.
Turning to `N=C(N/N=C/c1ccc(C(F)(F)F)cc1)N/N=C/c1ccc(C(F)(F)F)cc1` [NCL035], 20 µM corresponded to half-maximal inhibition in data set [1] (setting [6]) (IC50).
In turn, `N=C(NN=Cc1ccccc1C(F)(F)F)NN=Cc1ccccc1C(F)(F)F` [NCL036] showed an IC50 in data set [1] of 8.3 µM.
Still for that read-out and setting: to `N=C(NN=Cc1cccc(C(F)(F)F)c1)NN=Cc1cccc(C(F)(F)F)c1` [NCL037] belongs 16 µM.
Regarding `Cc1ccc(/C=N/NC(=N)N/N=C/c2ccc(C)cc2)cc1` [NCL038], inhibition in data set [1] (setting [6]) was half-maximal at 16 µM (IC50).
Regarding `Cc1ccccc1/C=N/NC(=N)N/N=C/c1ccccc1C` [NCL039], the half-inhibitory concentration (IC50) in data set [1] (setting [6]) was found to be 9.9 µM.
On the same count and under the same terms, to `Cc1cccc(/C=N/NC(=N)N/N=C/c2cccc(C)c2)c1` [NCL040] belongs 16 µM.
Turning to `N=C(N)N/N=C/c1ccc(C(F)(F)F)cc1` [NCL041], the IC50 in data set [1] (setting [6]) was determined as 14 µM. Moreover, in data set [2] (Leishmania donovani), the inhibition at 10 µM is 100%.
Consider `N=C(N)N/N=C/c1cccc(C(F)(F)F)c1` [NCL043], for which the half-inhibitory concentration (IC50) in data set [1] (setting [6]) amounted to 16 µM.
Still for that read-out and setting: to `Cc1ccc(/C=N/NC(=N)N)cc1` [NCL044] belongs 39 µM; to `N=C(N)N/N=C/c1cccc(Cl)c1` [NCL052], 15 µM; to `N=C(N/N=C/c1cccc(Cl)c1)N/N=C/c1cccc(Cl)c1` [NCL054], 19 µM.
`C/C(=N\NC(=N)N/N=C(\C)c1ccc(Cl)cc1)c1ccc(Cl)cc1.Cl` [NCL062]: in data set [3] (10 μM, 48 hrs), the “reduction of metabolic activity / inhibitory effect on T. brucei” value was “greatest inhibitory effect”. Besides, the “T. brucei SI” value in data set [3] (GI50 of macrophages divided by IC50 of parasites) is given as 1.75. In data set [3] (Trypanosoma brucei, 48 h), this compound returned a half-maximal inhibitory concentration (IC50) of 4.04 ± 0.83 µM. The GI50 at 24 h in data set [4] is 7.15 ± 1.27 µM. Besides, the inhibition at 10 µM in data set [2] (Leishmania donovani) is 100%. The “metabolic activity of the trophozoites (percentage of reduction of resazurin)” value in data set [5] is reported as “reduction in the metabolic activity”.
`N=C(NN)N/N=C/c1ccc(Cl)cc1` [NCL072] had an IC50 in data set [1] (setting [6]) of 46 µM.
The same measure, in the same setting: to `C/C(=N\NC(=N)NN)c1ccc(C(F)(F)F)cc1` [NCL073] belongs 24 µM; to `N=C(N/N=C/c1ccc(Cl)cc1)N/N=C/c1ccc(Cl)cc1Cl` [NCL074], 33 µM.
The compound `CC(=NNC(=N)NN=Cc1ccc(C(F)(F)F)cc1)c1ccc(C(F)(F)F)cc1` [NCL075] showed an IC50 in data set [1] of 15 µM.
On the same count and under the same terms, to `Cc1ccc(C=NNC(=N)NN=Cc2ccc(Cl)cc2)cc1` [NCL076] belongs 19 µM.
In turn, `N=C(N/N=C/c1ccc(Cl)cc1)N/N=C/c1ccc(C(F)(F)F)cc1F` [NCL078] registered an IC50 in data set [1] (setting [6]) greater than 10 µM.
Same read-out and setting: to `N=C(N/N=C/c1ccc(F)cc1)N/N=C/c1ccc(Cl)cc1` [NCL079] belongs greater than 10 µM.
Still for that read-out and setting: to `C/C(=N\NC(=N)N/N=C/c1ccc(Cl)cc1)c1ccc(C(F)(F)F)cc1` [NCL080] belongs 7.8 µM.
Same read-out and setting: to `C/C(=N\NC(=N)N/N=C/c1ccc(Cl)cc1)c1ccc(Cl)cc1` [NCL081] belongs 20 µM; to `N=C(N/N=C/c1ccc(Cl)cc1)N/N=C/c1ccccc1Cl` [NCL082], 22 µM.
On to `N=C(NN=Cc1ccc(Cl)cc1)NN=Cc1cccc(Cl)c1` [NCL083], for which, in data set [1], the concentration for half-maximal inhibition (IC50) was 16 µM.
In data set [1] (setting [6]), `N=C(N/N=C/c1ccc(Cl)cc1)N/N=C/c1ccc(Cl)cc1F` [NCL084] returned an IC50 of 22 µM.
For the compound `N#Cc1ccccc1C=NNC(=N)NN=Cc1ccc(Cl)cc1` [NCL085], the half-inhibitory concentration (IC50) in data set [1] was found to be 20 µM.
Compound `N#Cc1cccc(/C=N/NC(=N)N/N=C/c2ccc(Cl)cc2)c1` [NCL086] yielded an IC50 in data set [1] (setting [6]) of 14 µM.
In data set [1], `N#Cc1ccc(C=NNC(=N)NN=Cc2ccc(Cl)cc2)cc1` [NCL087] had a half-maximal inhibitory concentration (IC50) of 17 µM.
The compound `N=C(N/N=C/c1ccc(Cl)cc1)N/N=C/c1ccccc1F` [NCL088] displayed an IC50 in data set [1] (setting [6]) of 19 µM.
Still for that read-out and setting: to `C/C(=N\NC(=N)N/N=C(\C)c1ccc(C(C)(F)F)cc1)c1ccc(Cl)cc1` [NCL089] belongs 3 µM.
For `CN(C)c1ccc(/C=N/NC(=N)N/N=C/c2ccc(N(C)C)cc2)cc1.Cl` [NCL113], the concentration for 50% growth inhibition (GI50) at 24 h in data set [4] was found to be 12.9 ± 3.49 µM. Besides, the “L. donovani SI” value is “highly selective” in data set [2] and 14 in data set [2] (listed as NCL 113). In data set [2] (Leishmania donovani, 72 h), this compound displayed an IC50 of 920 ± 60 nM.

In general, IC50 refers to the concentration at which inhibition is half-maximal. A lower IC50 goes with inhibition by little substance. The GI50 is the concentration at which growth is held to half of that of the control.
